Measurements as given in US20230382911A1 (Hoffmann-La Roche Inc., priority 2021, published 2023).

Molecular target: Recombinant human Mat2a (Homo sapiens (Human), UniProt P31153)
Assay: Determination of Mat2A activity: 384 well format absorbance-based Mat2A inhibition assay
Format: biochemical
Conditions: 12.5 nM Mat2A, 100 μM ATP and Methionine, 2% DMSO, 120 minutes at RT, Biomol Green, absorbance at 635 nm
Protocol: Determination of Mat2A Activity
Measurement of Mat2A inhibition is performed in 384 well format absorbance-based assay.
Recombinant human Mat2a (12.5 nM) and serial diluted compounds in DMSO (range of concentrations from 10 μM to […]) or controls (DMSO) are incubated for 15 minutes at room temperature (RT) in assay buffer containing 50 mM HEPES pH 7.5, 50 mM KCl, 50 mM MgCl2, 0.01% Tween 20 and 10 mM DTT. The reaction is initiated by the addition of the combined substrates ATP and Methionine, each at a final concentration of 100 μM. Final assay condition are 12.5 nM Mat2A, 100 μM ATP and Methionine Substrates and 2% DMSO. After 120 minutes of incubation at RT, the reaction is stopped by the addition of Biomol Green. The absorbance signal is measured at λ=635 nm with a multiplate reader (BMG Pherastar reader or equivalent) after 30 min of equilibration at RT.

Sequence of Recombinant human Mat2a (P31153 whole entry): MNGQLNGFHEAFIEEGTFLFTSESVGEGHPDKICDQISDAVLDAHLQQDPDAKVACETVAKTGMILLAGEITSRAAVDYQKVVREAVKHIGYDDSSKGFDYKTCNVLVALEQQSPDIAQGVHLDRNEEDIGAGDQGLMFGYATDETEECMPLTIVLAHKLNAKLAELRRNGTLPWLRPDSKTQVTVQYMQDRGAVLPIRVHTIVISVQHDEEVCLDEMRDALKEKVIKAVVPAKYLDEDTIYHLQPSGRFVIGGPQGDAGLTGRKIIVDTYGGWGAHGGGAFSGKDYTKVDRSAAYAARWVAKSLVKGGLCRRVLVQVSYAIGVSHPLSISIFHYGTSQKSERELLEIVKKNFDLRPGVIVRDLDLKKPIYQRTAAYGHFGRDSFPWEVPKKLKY

Structure (SMILES)	IC50 [nM]
Cc1ccccc1C(=O)n1nc(N)c2ccc([C@H]3C[C@@H]3C)nc21 (racemic) [Example 33, (3-amino-6-((1RS,2RS)-2-methylcyclopropyl)-1H-pyrazolo[3,4-b]pyridin-1-yl)(o-tolyl)methanone]	28
COc1ccccc1C(=O)n1nc(N)c2ccc([C@H]3C[C@@H]3C)nc21 (racemic) [Example 34, (3-amino-6-((1RS,2RS)-2-methylcyclopropyl)-1H-pyridin-3-pyrazolo[3,4-b]pyridin-1-yl)(2-methoxyphenyl)methanone]	29
COc1ccccc1C(=O)n1nc(N)c2ccc([C@H]3C[C@@H]3F)nc21 (racemic) [Example 39, (3-amino-6-((1RS,2SR)-2-fluorocyclopropyl)-1H-pyrazolo[3,4-b]pyridin-1-yl)(2-methoxyphenyl)methanone]	64
COc1ccccc1C(=O)n1nc(N)c2ccc([C@@H]3C[C@H]3C(F)(F)F)nc21 (racemic) [Example 42, [3-amino-6-[(1RS,2RS)-2-(trifluoromethyl)cyclopropyl]pyrazolo[3,4-b]pyridin-1-yl]-(2-methoxyphenyl)methanone]	200
C[C@H]1C(=O)NCC[C@H]1C(=O)n1nc(N)c2ccc(C3CC3)nc21 (racemic) [Example 59, (3RS,4RS)-4-(3-amino-6-cyclopropylpyrazolo[3,4-b]pyridine-1-carbonyl)-3-methylpiperidin-2-one]	33
C[C@H]1OCC[C@H]1C(=O)n1nc(N)c2ccc(C3CC3)nc21 (racemic) [Example 65, (3-amino-6-cyclopropyl-1H-pyrazolo[3,4-b]pyridin-1-yl)((2SR,3RS)-2-methyltetrahydrofuran-3-methyloxolane-2-yl)methanone]	36
COc1ccccc1C(=O)n1nc(N)c2ccc(-c3ccccc3)nc21 [Example 1, (3-amino-6-phenyl-1H-pyrazolo[3,4-b]pyridin-1-yl)(2-methoxyphenyl)methanone]	92
COc1ccccc1C(=O)n1nc(N)c2cc(Cl)c(C3CC3)nc21 [Example 8, (3-amino-5-chloro-6-cyclopropyl-1H-pyrazolo[3,4-b]pyridin-1-yl)(2-methoxyphenyl)methanone]	56
Cc1ccccc1C(=O)n1nc(N)c2cc(F)c(N3CCCC3)nc21 [Example 13, (3-amino-5-fluoro-6-(pyrrolidin-1-yl)-1H-pyrazolo[3,4-b]pyridin-1-yl)(o-tolyl)methanone]	110
COc1ccccc1C(=O)n1nc(N)c2cc(F)c(N3CC(F)(F)C3)nc21 [Example 14, (3-amino-6-(3,3-difluoroazetidin-1-yl)-5-fluoro-1H-pyrazolo[3,4-b]pyridin-1-yl)(2-methoxyphenyl)methanone]	95
COc1ccccc1C(=O)n1nc(N)c2ccc(C(C)(C)C)nc21 [Example 15, (3-amino-6-(tert-butyl)-1H-pyrazolo[3,4-b]pyridin-1-yl)(2-methoxyphenyl)methanone]	99
Cc1ccccc1C(=O)n1nc(N)c2cnc(N3CCCC3)nc21 [Example 17, (3-amino-6-(pyrrolidin-1-yl)-1H-pyrazolo[3,4-d]pyrimidin-1-yl)(o-tolyl)methanone]	280
Cc1ccccc1C(=O)n1nc(N)c2ccc(C3CC3)nc21 [Example 20, (3-amino-6-cyclopropylpyrazolo[3,4-b]pyridin-1-yl)-(2-methylphenyl)methanone]	160
COc1ccccc1C(=O)n1nc(N)c2ccc(C3=CCCCO3)nc21 [Example 22, [3-amino-6-(3,4-dihydro-2H-pyran-6-yl)pyrazolo[3,4-b]pyridin-1-yl]-(2-methoxyphenyl)methanone]	440
COc1ccccc1C(=O)n1nc(N)c2ccc(N3CCC3)nc21 [Example 24, (3-amino-6-(azetidin-1-yl)-1H-pyrazolo[3,4-b]pyridin-1-yl)(2-methoxyphenyl)methanone]	300
Cc1ccccc1C(=O)n1nc(N)c2ccc(C(F)(F)F)nc21 [Example 25, (3-amino-6-(trifluoromethyl)-1H-pyrazolo[3,4-b]pyridin-1-yl)(o-tolyl)methanone]	290
COc1ccccc1C(=O)n1nc(N)c2ccc(N3CC(F)(F)C3)nc21 [Example 27, (3-amino-6-(3,3-difluoroazetidin-1-yl)-1H-pyrazolo[3,4-b]pyridin-1-yl)(2-methoxyphenyl)methanone]	69
Cc1ccccc1C(=O)n1nc(N)c2ccc(N3CC(F)(F)C3)nc21 [Example 28, (3-amino-6-(3,3-difluoroazetidin-1-yl)-1H-pyrazolo[3,4-b]pyridin-1-yl)(o-tolyl)methanone]	340
Cc1ccccc1C(=O)n1nc(N)c2ccc(C3CCC3)nc21 [Example 31, (3-amino-6-cyclobutyl-1H-pyrazolo[3,4-b]pyridin-1-yl)(o-tolyl)methanone]	200
COc1ccccc1C(=O)n1nc(N)c2ccc(C3CCC3)nc21 [Example 32]	59
COc1ccccc1C(=O)n1nc(N)c2ccc(C3=CCOC3)nc21 [Example 35, [3-amino-6-(2,5-dihydrofuran-3-yl)pyrazolo[3,4-b]pyridin-1-yl]-(2-methoxyphenyl)methanone]	17

The remaining compounds from weak to strong by IC50, led by results:

IC50 [nM]	Structure (SMILES)
480	Cc1ccccc1C(=O)n1nc(N)c2ccc(C3CCCC3)nc21 [Example 29, (3-amino-6-cyclopentylpyrazolo[3,4-b]pyridin-1-yl)-(2-methylphenyl)methanone]
410	Nc1nn(C(=O)c2cccc3c2OCO3)c2nc(C3CC3)ccc12 [Example 19, (3-amino-6-cyclopropylpyrazolo[3,4-b]pyridin-1-yl)-(1,3-benzodioxol-4-yl)methanone]
390	Cc1ccccc1C(=O)n1nc(N)c2cc(Cl)c(C3CC3)nc21 [Example 9]
350	Nc1nn(C(=O)c2ccccc2Cl)c2nc(N3CCCC3)ncc12 [Example 18, (3-amino-6-(pyrrolidin-1-yl)-1H-pyrazolo[3,4-d]pyrimidin-1-yl)(2-chlorophenyl)methanone]
280	COc1ccccc1C(=O)n1nc(N)c2cc(F)c(-c3ccccc3)nc21 [Example 10, (3-amino-5-fluoro-6-phenyl-1H-pyrazolo[3,4-b]pyridin-1-yl)(2-methoxyphenyl)methanone]
170	COc1ccccc1C(=O)n1nc(N)c2ccc(N3C[C@@H]4CC[C@H]3C4)nc21 (racemic) [Example 51, [3-amino-6-[(1RS,4SR)-3-azabicyclo[2.2.1]heptan-3-yl]pyrazolo[3,4-b]pyridin-1-yl]-(2-methoxyphenyl)methanone]
140	Nc1nn(C(=O)c2ccccc2Cl)c2nc(N3CCCC3)ccc12 [Example 4, (3-amino-6-(pyrrolidin-1-yl)-1H-pyrazolo[3,4-b]pyridin-1-yl)(2-chlorophenyl)methanone]
140	Nc1nn(C(=O)c2ccccc2Cl)c2nc(N3CCCC3)c(F)cc12 [Example 12, (3-amino-5-fluoro-6-(pyrrolidin-1-yl)-1H-pyrazolo[3,4-b]pyridin-1-yl)(2-chlorophenyl)methanone]
140	COc1ccccc1C(=O)n1nc(N)c2cc3c(nc21)CC(C)(C)CC3 [Example 21, (3-amino-7,7-dimethyl-5,6,7,8-tetrahydro-1H-pyrazolo[3,4-b]quinolin-1-yl)(2-methoxyphenyl)methanone]
120	COc1ccccc1C(=O)n1nc(N)c2ccc(C3CC3)nc21 [Example 7, (3-amino-6-cyclopropylpyrazolo[3,4-b]pyridin-1-yl)-(2-methoxyphenyl)methanone]
120	COc1ccccc1C(=O)n1nc(N)c2ccc(C(F)(F)F)nc21 [Example 26]
110	COc1ccccc1C(=O)n1nc(N)c2ccc(CC(C)C)nc21 [Example 2, (3-amino-6-isobutyl-1H-pyrazolo[3,4-b]pyridin-1-yl)(2-methoxyphenyl)methanone]
110	COc1ccccc1C(=O)n1nc(N)c2ccc(C3=CCCCC3)nc21 [Example 6, [3-amino-6-(cyclohexen-1-yl)pyrazolo[3,4-b]pyridin-1-yl]-(2-methoxyphenyl)methanone]
94	Cc1ccccc1C(=O)n1nc(N)c2ccc(N3CCCC3)nc21 [Example 5, (3-amino-6-(pyrrolidin-1-yl)-1H-pyrazolo[3,4-b]pyridin-1-yl)(o-tolyl)methanone]
67	Cc1ccccc1C(=O)n1nc(N)c2ccc(C3=CCOC3)nc21 [Example 36, [3-amino-6-(2,5-dihydrofuran-3-yl)pyrazolo[3,4-b]pyridin-1-yl]-(2-methylyphenyl)methanone]
65	COc1ccccc1C(=O)n1nc(N)c2cnc(N3CCCC3)nc21 [Example 16, (3-amino-6-(pyrrolidin-1-yl)-1H-pyrazolo[3,4-d]pyrimidin-1-yl)(2-methoxyphenyl)methanone]
53	COc1ccccc1C(=O)n1nc(N)c2ccc(N3CCCC3)nc21 [Example 3, (3-amino-6-(pyrrolidin-1-yl)-1H-pyrazolo[3,4-b]pyridin-1-yl)(2-methoxyphenyl)methanone]
53	Cc1ccccc1C(=O)n1nc(N)c2ccc(C3=CCCC3)nc21 [Example 30, [3-amino-6-(cyclopenten-1-yl)pyrazolo[3,4-b]pyridin-1-yl]-(2-methylphenyl)methanone]
20	COc1ccccc1C(=O)n1nc(N)c2ccc(C3=CCCC3)nc21 [Example 23, [3-amino-6-(cyclopenten-1-yl)pyrazolo[3,4-b]pyridin-1-yl]-(2-methoxyphenyl)methanone]
